Results from PubChem BioAssay (NCI).
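Growth conditions: 96-well plates. Treatment: test compound, 48 hours, 5 concentrations. Analysis: linear interpolation between bracketing concentrations; unreached endpoints set to highest concentration. GI50 is the concentration that inhibits growth by half. TGI: concentration producing complete growth inhibition.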

How the values were obtained:
Assay in all cases: NCI tumour cell line growth inhibition, 48 h
BT-549 breast = test system: BT-549 breast
NCI-H460 lung = test system: NCI-H460 lung
NCI/ADR-RES ovarian = test system: NCI/ADR-RES ovarian
SK-OV-3 ovarian = test system: SK-OV-3 ovarian
A549 NSCLC = test system: A549 NSCLC
CAKI-1 renal = test system: CAKI-1 renal
OVCAR-3 ovarian = test system: OVCAR-3 ovarian
HOP-92 NSCLC = test system: HOP-92 NSCLC
SF-295 CNS = test system: SF-295 CNS
UACC-257 melanoma = test system: UACC-257 melanoma
HS 578T breast = test system: HS 578T breast
COLO 205 colon = test system: COLO 205 colon
EKVX NSCLC = test system: EKVX NSCLC
DU-145 prostate = test system: DU-145 prostate
HCT-15 colon = test system: HCT-15 colon
MCF7 breast = test system: MCF7 breast
A498 renal = test system: A498 renal
786-0 renal = test system: 786-0 renal
HOP-62 NSCLC = test system: HOP-62 NSCLC
NCI-H522 lung = test system: NCI-H522 lung
MOLT-4 leukemia = test system: MOLT-4 leukemia
NCI-H226 lung = test system: NCI-H226 lung
ACHN renal = test system: ACHN renal
OVCAR-8 ovarian = test system: OVCAR-8 ovarian
OVCAR-4 ovarian = test system: OVCAR-4 ovarian
IGROV1 ovarian = test system: IGROV1 ovarian
RPMI-8226 leukemia = test system: RPMI-8226 leukemia
SNB-75 CNS = test system: SNB-75 CNS
SK-MEL-28 melanoma = test system: SK-MEL-28 melanoma
SF-268 CNS = test system: SF-268 CNS
UO-31 renal = test system: UO-31 renal
LOX IMVI melanoma = test system: LOX IMVI melanoma
HCT-116 colon = test system: HCT-116 colon
SNB-19 CNS = test system: SNB-19 CNS
HL-60(TB) leukemia = test system: HL-60(TB) leukemia
NCI-H23 lung = test system: NCI-H23 lung
SF-539 CNS = test system: SF-539 CNS
K-562 leukemia = test system: K-562 leukemia
CCRF-CEM leukemia = test system: CCRF-CEM leukemia
UACC-62 melanoma = test system: UACC-62 melanoma
HT29 colon = test system: HT29 colon
M14 melanoma = test system: M14 melanoma
MDA-MB-231 breast = test system: MDA-MB-231 breast
MDA-MB-435 = test system: MDA-MB-435
KM12 colon = test system: KM12 colon
TK-10 renal = test system: TK-10 renal
SN12C renal = test system: SN12C renal
PC-3 prostate = test system: PC-3 prostate
SK-MEL-2 melanoma = test system: SK-MEL-2 melanoma
HCC-2998 colon = test system: HCC-2998 colon
T-47D breast = test system: T-47D breast
SR leukemia = test system: SR leukemia
SK-MEL-5 melanoma = test system: SK-MEL-5 melanoma
U251 CNS = test system: U251 CNS
MALME-3M melanoma = test system: MALME-3M melanoma
OVCAR-5 ovarian = test system: OVCAR-5 ovarian
SW-620 colon = test system: SW-620 colon

`O=C(CCCCCCNC(=O)C(O)(O)C(F)(F)F)Nc1ccc(Cl)cc1` showed a GI50 (BT-549 breast) of 6.72 µM, a TGI (BT-549 breast) of 35 µM and a GI50 (NCI-H460 lung) of 4.59 µM. For the same compound, the TGI (NCI-H460 lung) was over 36.8 µM, the GI50 (NCI/ADR-RES ovarian) was 6.16 µM and the TGI (NCI/ADR-RES ovarian) was 28.7 µM. For the same compound, the GI50 (SK-OV-3 ovarian) was 5.56 µM, the TGI (SK-OV-3 ovarian) was 26 µM and the GI50 (A549 NSCLC) was 9.56 µM. For the same compound, the TGI (A549 NSCLC) was over 36.8 µM, the GI50 (CAKI-1 renal) was 8.98 µM and the TGI (CAKI-1 renal) was over 36.8 µM. For the same compound, the GI50 (OVCAR-3 ovarian) was 3.83 µM, the TGI (OVCAR-3 ovarian) was 10.1 µM and the GI50 (HOP-92 NSCLC) was 1.06 µM. The TGI (HOP-92 NSCLC) was 8.39 µM, the GI50 (SF-295 CNS) was 5.77 µM and the TGI (SF-295 CNS) was 13.1 µM. It also gave a GI50 (UACC-257 melanoma) of 7.85 µM, a TGI (UACC-257 melanoma) of over 36.8 µM and a GI50 (HS 578T breast) of 3.68 µM. The TGI (HS 578T breast) was 30.1 µM, the GI50 (COLO 205 colon) was 5.83 µM and the TGI (COLO 205 colon) was 15.1 µM. The GI50 (EKVX NSCLC) was 11.2 µM, the TGI (EKVX NSCLC) was over 36.8 µM and the GI50 (DU-145 prostate) was 8.13 µM. It also gave a TGI (DU-145 prostate) of over 36.8 µM, a GI50 (HCT-15 colon) of 8.18 µM and a TGI (HCT-15 colon) of over 36.8 µM. For the same compound, the GI50 (MCF7 breast) was 10.8 µM, the TGI (MCF7 breast) was over 36.8 µM and the GI50 (A498 renal) was 1.38 µM. It also gave a TGI (A498 renal) of 12.5 µM, a GI50 (786-0 renal) of 9.48 µM and a TGI (786-0 renal) of over 36.8 µM. For the same compound, the GI50 (HOP-62 NSCLC) was 7.75 µM, the TGI (HOP-62 NSCLC) was over 36.8 µM and the GI50 (NCI-H522 lung) was 4.68 µM. It also gave a TGI (NCI-H522 lung) of 19.8 µM, a GI50 (MOLT-4 leukemia) of 2.87 µM and a TGI (MOLT-4 leukemia) of over 36.8 µM. For the same compound, the GI50 (NCI-H226 lung) was 9.49 µM, the TGI (NCI-H226 lung) was over 36.8 µM and the GI50 (ACHN renal) was 6.01 µM. For the same compound, the TGI (ACHN renal) was 28.2 µM, the GI50 (OVCAR-8 ovarian) was 3.5 µM and the TGI (OVCAR-8 ovarian) was over 36.8 µM. It also gave a GI50 (OVCAR-4 ovarian) of 15.7 µM, a TGI (OVCAR-4 ovarian) of over 36.8 µM and a GI50 (IGROV1 ovarian) of 5.11 µM. For the same compound, the TGI (IGROV1 ovarian) was 19.8 µM, the GI50 (RPMI-8226 leukemia) was 3.46 µM and the TGI (RPMI-8226 leukemia) was over 36.8 µM. For the same compound, the GI50 (SNB-75 CNS) was 8.76 µM, the TGI (SNB-75 CNS) was over 36.8 µM and the GI50 (SK-MEL-28 melanoma) was 5.4 µM. The TGI (SK-MEL-28 melanoma) was 34.3 µM, the GI50 (SF-268 CNS) was 7.27 µM and the TGI (SF-268 CNS) was 24.5 µM. For the same compound, the GI50 (UO-31 renal) was 5.25 µM, the TGI (UO-31 renal) was 23.7 µM and the GI50 (LOX IMVI melanoma) was 4.07 µM. For the same compound, the TGI (LOX IMVI melanoma) was 8.94 µM, the GI50 (HCT-116 colon) was 1.59 µM and the TGI (HCT-116 colon) was over 36.8 µM. For the same compound, the GI50 (SNB-19 CNS) was 7.56 µM, the TGI (SNB-19 CNS) was 30.9 µM and the GI50 (HL-60(TB) leukemia) was 3.64 µM. For the same compound, the TGI (HL-60(TB) leukemia) was over 36.8 µM, the GI50 (NCI-H23 lung) was 7.08 µM and the TGI (NCI-H23 lung) was 34.2 µM. It also gave a GI50 (SF-539 CNS) of 8.85 µM, a TGI (SF-539 CNS) of over 36.8 µM and a GI50 (K-562 leukemia) of 1.82 µM. It also gave a TGI (K-562 leukemia) of over 36.8 µM, a GI50 (CCRF-CEM leukemia) of 2.73 µM and a TGI (CCRF-CEM leukemia) of over 36.8 µM. It also gave a GI50 (UACC-62 melanoma) of 3.19 µM, a TGI (UACC-62 melanoma) of 9.28 µM and a GI50 (HT29 colon) of 6.28 µM. For the same compound, the TGI (HT29 colon) was over 36.8 µM, the GI50 (M14 melanoma) was 9.99 µM and the TGI (M14 melanoma) was over 36.8 µM. For the same compound, the GI50 (MDA-MB-231 breast) was 5.2 µM, the TGI (MDA-MB-231 breast) was 27.3 µM and the GI50 (MDA-MB-435) was 7.13 µM. For the same compound, the TGI (MDA-MB-435) was over 36.8 µM, the GI50 (KM12 colon) was 7.92 µM and the TGI (KM12 colon) was over 36.8 µM. For the same compound, the GI50 (TK-10 renal) was 1.55 µM, the TGI (TK-10 renal) was over 36.8 µM and the GI50 (SN12C renal) was 7.66 µM. It also gave a TGI (SN12C renal) of 35.6 µM, a GI50 (PC-3 prostate) of 5.01 µM and a TGI (PC-3 prostate) of over 36.8 µM. For the same compound, the GI50 (SK-MEL-2 melanoma) was 5.41 µM, the TGI (SK-MEL-2 melanoma) was 17.6 µM and the GI50 (HCC-2998 colon) was 7.62 µM. It also gave a TGI (HCC-2998 colon) of 22 µM, a GI50 (T-47D breast) of 5.76 µM and a TGI (T-47D breast) of over 36.8 µM. The GI50 (SR leukemia) was 2.44 µM, the TGI (SR leukemia) was over 36.8 µM and the GI50 (SK-MEL-5 melanoma) was 5.07 µM. It also gave a TGI (SK-MEL-5 melanoma) of 10 µM, a GI50 (U251 CNS) of 4.91 µM and a TGI (U251 CNS) of 21 µM. It also gave a GI50 (MALME-3M melanoma) of 2.83 µM, a TGI (MALME-3M melanoma) of 22 µM and a GI50 (OVCAR-5 ovarian) of 4.26 µM. It also gave a TGI (OVCAR-5 ovarian) of 20.9 µM, a GI50 (SW-620 colon) of 4.02 µM and a TGI (SW-620 colon) of 16.3 µM.
